This passage reports IC50 results from US6630469B2, “5-HT7 receptor antagonists” (Bristol-Myers Squibb Company, priority 2000, dated 2003).

Broadly, the IC50 is the concentration that gives 50% inhibition. Lower therefore signals higher potency.

Where only a bound is given, the exact number is not on record here.

The target in the assay is T1, human 5-HT7 receptor (Homo sapiens, UniProt P34969).
T1 construct: expressed in transfected cells; host or cells: CHO cells
T1 sequence (P34969 whole entry): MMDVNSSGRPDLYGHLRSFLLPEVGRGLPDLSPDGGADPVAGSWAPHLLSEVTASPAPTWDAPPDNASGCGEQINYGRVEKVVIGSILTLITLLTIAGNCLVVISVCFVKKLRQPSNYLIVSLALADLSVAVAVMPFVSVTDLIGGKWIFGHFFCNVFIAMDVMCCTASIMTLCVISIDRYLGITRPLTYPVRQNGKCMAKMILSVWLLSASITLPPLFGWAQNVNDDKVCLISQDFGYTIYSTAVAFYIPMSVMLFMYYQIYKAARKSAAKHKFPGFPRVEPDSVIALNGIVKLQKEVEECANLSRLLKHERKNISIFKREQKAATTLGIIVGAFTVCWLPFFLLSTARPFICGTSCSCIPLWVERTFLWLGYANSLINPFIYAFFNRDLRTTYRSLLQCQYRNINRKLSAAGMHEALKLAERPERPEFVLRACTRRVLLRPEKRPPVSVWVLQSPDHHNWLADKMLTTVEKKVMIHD
As to the kind of experiment: 5-HT7 Receptor Binding Assay. To be noted: membranes of CHO cells expressing human 5-HT7 receptor; 1 nM 3H-5-carboxamidotryptamine; 25° C., 60 minutes. How it is done: 5-HT7 Receptor Binding Assay
Membranes are prepared for binding using the human 5-HT7 receptor expressed in CHO cells. Cells are collected and ruptured using a dounce homogenizer. The cells are spun at 18000× g for 10 minutes and the pellet is resuspended in assay buffer, frozen in liquid nitrogen and kept at −80° C. until the day of the assay.
A total of 30 ug protein is used per well. The assay is carried out in 96-deep-well plates. The assay buffer is 50 mM HEPES. The membrane preparation is incubated at 25° C. for 60 minutes with 0.1 nM to 1000 nM test compound and 1 nM ^3H-5-carboxamidotryptamine. 10 uM serotonin is used as blocking agent to determine non-specific binding. The reaction is terminated by the addition of 1 ml of ice cold 5OmM HEPES buffer and rapid filtration through a Brandel Cell Harvester using Whatman GF/B filters. The filter pads are counted in an LKB Trilux liquid scintillation counter. IC50 values are determined using non-linear regression by Exel-fit.
As for `COc1cccc(CCNc2nc(N)nc(N[C@@H](C)c3ccc([N+](=O)[O-])cc3)n2)c1` [Compound 77, N^2-[2-(3-Methoxyphenyl)ethyl]-N^4-[(1S)-1-(4-nitrophenyl)ethyl]-1,3,5-triazine-2,4,6-triamine], the half-inhibitory concentration (IC50) was ≤ 50 nM.

On to `C[C@H](Nc1nc(N)nc(NCCc2ccc(N)cc2)n1)c1ccc([N+](=O)[O-])cc1` [Compound 78, N^2-[2-(4-Aminophenyl)ethyl]-N^4-[(1S)-1-(4-nitrophenyl)ethyl]-1,3,5-triazine-2,4,6-triamine], for which the IC50 is ≤ 50 nM.

Take `Cc1ccc(CCNc2nc(N)nc(N[C@@H](C)c3ccc([N+](=O)[O-])cc3)n2)cc1` [Compound 79, N^2-[2-(4-Methylphenyl)ethyl]-N^4-[(1S)-1-(4-nitrophenyl)ethyl]-1,3,5-triazine-2,4,6-triamine]: the IC50 is ≤ 50 nM.

Take `COc1cc(CCNc2nc(N)nc(N[C@@H](C)c3ccc([N+](=O)[O-])cc3)n2)ccc1O` [Compound 80, N^2-[2-(4-Hydroxy-3-methoxyphenyl)ethyl]-N^4-[(1S)-1-(4-nitrophenyl)ethyl]-1,3,5-triazine-2,4,6-triamine]: the IC50 was ≤ 50 nM.

Regarding `C[C@H](Nc1cc(NCCOc2ccc(F)cc2)ncn1)c1ccccc1` [Example 16, N^4-[2-(4-Fluorophenoxy)ethyl]-N^6-[(1S)-1-phenylethyl]pyrimidine-4,6-diamine], the half-inhibitory concentration (IC50) is ≤ 50 nM.

`C[C@H](Nc1nc(N)nc(NCCc2ccc(F)cc2)n1)c1ccc(F)cc1` [Example 17, N^2-[(1S)-1-(4-Fluorophenyl)ethyl]-N^4-[2-(4-fluorophenyl)ethyl]-1,3,5-triazine-2,4,6-triamine]: the half-inhibitory concentration (IC50) is ≤ 50 nM.

For `C[C@H](Nc1nc(N)nc(NCCc2ccccn2)n1)c1ccc(F)cc1` [Example 18, N^2-[(1S)-1-(4-Fluorophenyl)ethyl]-N^4-[2-(2-pyridinyl)ethyl]-1,3,5-triazine-2,4,6-triamine], the IC50 is ≤ 50 nM.

Regarding `Nc1nc(NCCc2ccccc2)nc(NCc2ccccc2Cl)n1` [N^2-(2-Chlorophenylmethyl)-N^4-(2-phenylethyl)-1,3,5-triazine-2,4,6-triamine], the concentration for half-maximal inhibition (IC50) was ≤ 50 nM.

Turning to `c1ccc(CNc2ccnc(NCCOc3ccccc3)n2)cc1` [N^2-(2-Phenoxyethyl)-N^4-(phenylmethyl)pyrimidine-2,4-diamine], the IC50 is ≤ 50 nM.

For the compound `FC(F)(F)c1cccc(CNc2ccnc(NCCOc3ccccc3)n2)c1` [N^2-(2-Phenoxyethyl)-N^4-[3-(trifluoromethyl)phenylmethyl]pyrimidine-2,4-diamine], the IC50 was ≤ 50 nM.

Compound `FC(F)(F)c1ccc(CNc2ccnc(NCCOc3ccccc3)n2)cc1` [N^2-(2-Phenoxyethyl)-N^4-[4-(trifluoromethyl)phenylmethyl]pyrimidine-2,4-diamine] returned an IC50 of 101 to 200 nM.

With `C[C@@H](Nc1ccnc(NCCOc2ccccc2)n1)c1ccccc1` [N^2-(2-Phenoxyethyl)-N^4-[(1R)-1-phenylethyl]pyrimidine-2,4-diamine], the half-inhibitory concentration (IC50) lay within 101 to 200 nM.

On to `CC[C@@H](Nc1ccnc(NCCOc2ccccc2)n1)c1ccccc1` [N^2-(2-Phenoxyethyl)-N^4-[(1R)-1-phenylpropyl]pyrimidine-2,4-diamine], for which the half-maximal inhibitory concentration (IC50) lay in the range of 101 to 200 nM.

In the case of `C[C@H](Nc1ccnc(NCCOc2ccccc2)n1)c1ccccc1` [N^2-(2-Phenoxyethyl)-N^4-[(1S)-1-phenylethyl]pyrimidine-2,4-diamine], the concentration for half-maximal inhibition (IC50) was ≤ 50 nM.

For `CC[C@H](Nc1ccnc(NCCOc2ccccc2)n1)c1ccccc1` [N^2-(2-Phenoxyethyl)-N^4-[(1S)-1-phenylpropyl]pyrimidine-2,4-diamine], the half-maximal inhibitory concentration (IC50) is ≤ 50 nM.

Regarding `CC(Nc1ccnc(NCCSc2ccccc2)n1)c1ccccc1` (stereo not drawn) [N^2-(2-Phenthioethyl)-N^4-(1-phenylethyl)pyrimidine-2,4-diamine], the 50% inhibitory concentration (IC50) lay within 51 to 100 nM.

`c1ccc(CCNc2nccc(NCc3ccncc3)n2)cc1` [N^2-(2-Phenylethyl)-N^4-(4-pyridinylmethyl)pyrimidine-2,4-diamine] returned a 50% inhibitory concentration (IC50) of 101 to 200 nM.

Consider `c1ccc(CCNc2nccc(NCc3ccccc3)n2)cc1` [N^2-(2-Phenylethyl)-N^4-(phenylmethyl)pyrimidine-2,4-diamine], for which the IC50 is ≤ 50 nM.

In the case of `FC(F)(F)c1cccc(CNc2ccnc(NCCc3ccccc3)n2)c1` [N^2-(2-Phenylethyl)-N^4-[3-(trifluoromethyl)phenylmethyl]pyrimidine-2,4-diamine], the half-maximal inhibitory concentration (IC50) was ≤ 50 nM.

`FC(F)(F)c1ccc(CNc2ccnc(NCCc3ccccc3)n2)cc1` [N^2-(2-Phenylethyl)-N^4-[4-(trifluoromethyl)phenylmethyl]pyrimidine-2,4-diamine] displayed a concentration for half-maximal inhibition (IC50) of 101 to 200 nM.

The compound `C[C@@H](Nc1ccnc(NCCc2ccccc2)n1)c1ccccc1` [N^2-(2-Phenylethyl)-N^4-[(1R)-1-phenylethyl]pyrimidine-2,4-diamine] displayed an IC50 of 101 to 200 nM.

Regarding `CC[C@@H](Nc1ccnc(NCCc2ccccc2)n1)c1ccccc1` [N^2-(2-Phenylethyl)-N^4-[(1R)-1-phenylpropyl]pyrimidine-2,4-diamine], the IC50 is 51 to 100 nM.

In the case of `CC[C@H](Nc1ccnc(NCCc2ccccc2)n1)c1ccccc1` [N^2-(2-Phenylethyl)-N^4-[(1S)-1-phenylpropyl]pyrimidine-2,4-diamine], the half-inhibitory concentration (IC50) is ≤ 50 nM.

For `CC(Nc1ccnc(N(C)CCc2ccccc2)n1)c1ccccc1` (stereo not drawn) [N^2-(Methyl)-N^2-(2-phenylethyl)-N^4-(1-phenylethyl)pyrimidine-2,4-diamine], the concentration for half-maximal inhibition (IC50) was ≤ 50 nM.

For the compound `CC(Nc1ccnc(NCCc2ccccc2F)n1)c1ccccc1` (stereo not drawn) [N^2-[2-(2-Fluorophenyl)ethyl]-N^4-(1-phenylethyl)pyrimidine-2,4-diamine], the IC50 was ≤ 50 nM.

As for `COc1ccccc1CCNc1nc(C)cc(N[C@@H](C)c2ccccc2)n1` [N^2-[2-(2-Methoxyphenyl)ethyl]-6-methyl-N^4-[(1S)-1-phenylethyl]pyrimidine-2,4-diamine], the IC50 is ≤ 50 nM.

Turning to `COc1ccccc1CCNc1nccc(NC(C)c2ccccc2)n1` (stereo not drawn) [N^2-[2-(2-Methoxyphenyl)ethyl]-N^4-(1-phenylethyl)pyrimidine-2,4-diamine], the IC50 lay in the range of 51 to 100 nM.

`CC(Nc1ccnc(NCCc2ccc(Cl)c(Cl)c2)n1)c1ccccc1` (stereo not drawn) [N^2-[2-(3,4-Dichlorophenyl)ethyl]-N^4-(1-phenylethyl)pyrimidine-2,4-diamine]: the IC50 fell in the range of 51 to 100 nM.

`COc1cc(CCNc2nc(C)cc(N[C@@H](C)c3ccccc3)n2)cc(OC)c1` [N^2-[2-(3,5-Dimethoxyphenyl)ethyl]-6-methyl-N^4-[(1S)-1-phenylethyl]pyrimidine-2,4-diamine]: the half-maximal inhibitory concentration (IC50) fell in the range of 51 to 100 nM.

`CC(=O)Nc1cccc(CCNc2nc(C)cc(N[C@@H](C)c3ccccc3)n2)c1` [N^2-[2-(3-Acetamidophenyl)ethyl]-6-methyl-N^4-[(1S)-1-phenylethyl]pyrimidine-2,4-diamine] came in with an IC50 of 101 to 200 nM.

Compound `COc1ccc(CCNc2nc(C)cc(N[C@@H](C)c3ccccc3)n2)cc1Br` [N^2-[2-(3-Bromo-4-methoxyphenyl)ethyl]-6-methyl-N^4-[(1S)-1-phenylethyl]pyrimidine-2,4-diamine] came in with an IC50 of 51 to 100 nM.

In the case of `Cc1cc(N[C@@H](C)c2ccccc2)nc(NCCc2cccc(Br)c2)n1` [N^2-[2-(3-Bromophenyl)ethyl]-6-methyl-N^4-[(1S)-1-phenylethyl]pyrimidine-2,4-diamine], the IC50 was ≤ 50 nM.

For the compound `CC(Nc1ccnc(NCCc2cccc(Cl)c2)n1)c1ccccc1` (stereo not drawn) [N^2-[2-(3-Chlorophenyl)ethyl]-N^4-(1-phenylethyl)pyrimidine-2,4-diamine], the concentration for half-maximal inhibition (IC50) was ≤ 50 nM.

Consider `Cc1cc(N[C@@H](C)c2ccccc2)nc(NCCc2cccc(C#N)c2)n1` [N^2-[2-(3-Cyanophenyl)ethyl]-6-methyl-N^4-[(1S)-1-phenylethyl]pyrimidine-2,4-diamine], for which the IC50 is ≤ 50 nM.

`Cc1cc(N[C@@H](C)c2ccccc2)nc(NCCc2cccc(F)c2)n1` [N^2-[2-(3-Fluorophenyl)ethyl]-6-methyl-N^4-[(1S)-1-phenylethyl]pyrimidine-2,4-diamine]: the IC50 is ≤ 50 nM.

With `CC(Nc1ccnc(NCCc2cccc(F)c2)n1)c1ccccc1` (stereo not drawn) [N^2-[2-(3-Fluorophenyl)ethyl]-N^4-(1-phenylethyl)pyrimidine-2,4-diamine], the IC50 was ≤ 50 nM.

Turning to `COc1cccc(CCNc2nc(C)cc(N[C@@H](C)c3ccccc3)n2)c1` [N^2-[2-(3-Methoxyphenyl)ethyl]-6-methyl-N^4-[(1S)-1-phenylethyl]pyrimidine-2,4-diamine], the 50% inhibitory concentration (IC50) was ≤ 50 nM.

With `COc1cccc(CCNc2nccc(NC(C)c3ccccc3)n2)c1` (stereo not drawn) [N^2-[2-(3-Methoxyphenyl)ethyl]-N^4-(1-phenylethyl)pyrimidine-2,4-diamine], the 50% inhibitory concentration (IC50) was ≤ 50 nM.

`CC(Nc1ccnc(NCCc2cccc3c2OCO3)n1)c1ccccc1` (stereo not drawn) [N^2-[2-(4-Benzodioxolyl)ethyl]-N^4-(1-phenylethyl)pyrimidine-2,4-diamine] gave a half-inhibitory concentration (IC50) of 101 to 200 nM.

For the compound `Cc1cc(N[C@@H](C)c2ccccc2)nc(NCCc2ccc(Cl)cc2)n1` [N^2-[2-(4-Chlorophenyl)ethyl]-6-methyl-N^4-[(1S)-1-phenylethyl]pyrimidine-2,4-diamine], the IC50 was ≤ 50 nM.

On to `CC(Nc1ccnc(NCCc2ccc(Cl)cc2)n1)c1ccccc1` (stereo not drawn) [N^2-[2-(4-Chlorophenyl)ethyl]-N^4-(1-phenylethyl)pyrimidine-2,4-diamine], for which the IC50 fell in the range of 51 to 100 nM.

Take `CC(Nc1ccnc(NCCc2ccc(F)cc2)n1)c1ccccc1` (stereo not drawn) [N^2-[2-(4-Fluorophenyl)ethyl]-N^4-(1-phenylethyl)pyrimidine-2,4-diamine]: the IC50 is ≤ 50 nM.
